The values that follow come from patent US9650399B2, “Salicylic acid derivatives, pharmaceutically acceptable salt thereof, composition thereof and method of use thereof” (The Governing Council of the University of Toronto, priority 2012, dated 2017).

The target in one data set is His-tagged STAT5. The data set can be described thus: surface plasmon resonance (SPR) binding, STAT5. Details: species or system human. The note with it: SPR control experiment. The protocol:
Interactions of His-tagged STAT3 with small molecules were investigated using SPR spectroscopy. The binding experiments were carried out on a ProteOn XPR36 (Bio-Rad) biosensor at 25° C. using the HTE sensor chip (Bio-Rad, Ontario, Canada). The flow cells of the sensor chip were loaded with a nickel solution at 30 μL/min for 120 s to saturate the Tris NTA surface with Ni(II) ions. Purified His-tagged STAT3 and STAT5 (SignalChem, British Columbia, Canada) in PBST buffer (PBS with 0.005% (v/v) Tween-20 and 0.001% DMSO pH 7.4) was injected in the first and second channels of the chip respectively in the vertical direction at a flow rate of […] for 300 s, which attained, on average, 8000 resonance unit (RU). After a wash with PBST buffer, inhibitors binding to the immobilized proteins were monitored by injecting a range of concentrations along with a blank at a flow rate of 100 μL/min for 200 s for each of these small molecules. When the injection of the small molecule inhibitor was completed, running buffer was allowed to flow over the immobilized substrates for the non-specifically bound inhibitors to dissociate for 600 s. Following dissociation of the inhibitors, the chip surface was regenerated with an injection of 1 M NaCl at a flow rate of […] for 18 s. […] Data were analyzed using ProteOn Manager Software version 3.1. […]

In another data set the test system is BTSC30M. The data set can be described thus: alamarBlue cell viability, BTSC 30M. Format: cell-based, human. The following applies: BTSC 30M. The method in brief: (§1)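 Patient-derived GBM brain tumour stem cells, dissociated spheres seeded at 1500 cells/96-well, or 3000 cells/96-well in one setup. Drug or DMSO vehicle added one day after plating. Viability read by alamarBlue after 72 hrs, triplicate wells.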

Another data set concerns BTSC73M. The data set can be described thus: alamarBlue cell viability, BTSC 73M. The data set is classed as cell-based, human. The following applies: BTSC 73M. The method in brief:
as §1

For data set [1] the following is noted: cited from earlier work.

In the case of `CC(C)C[C@H](NC(=O)[C@@H](N)Cc1ccc(OP(=O)(O)O)cc1)C(=O)N1CCC[C@H]1C(=O)N[C@@H](CCC(N)=O)C(=O)N[C@H](C(=O)N[C@H](C(N)=O)C(C)C)[C@@H](C)O` [STAT3 peptide sequence], the “KD (STAT5)” value at His-tagged STAT5 is reported as “No binding”.
As usually defined, the EC50 is the concentration that produces a half-maximal response. For orientation: IC50 means the concentration needed to halve the response being measured. “Cucurbitacin [Cucurbitacin 1, reference compound]”: the EC50 in the data set on BTSC30M (read-out: EC50 v.s. 30M) stood at 630 nM; with BTSC73M (read-out: EC50 v.s. 73M) it was 700 nM. For the same molecule, the IC50 in the data set with BTSC30M (read-out: IC50 (μM) 30M, Table 2, alamarBlue, 72 hrs) worked out at 0.63 ± 0.08 µM; with BTSC73M (Table 2, alamarBlue, 72 hrs, read-out: IC50 (μM) 73M), 0.7 ± 0.06 µM. Further, the BBB permeability result in data set [1] was “poor BBB permeability”.
